# Data as given in BindingDB's records for PubMed 11504829 (University of Melbourne, 2001).
# Assays:
# [1] = molecular target: T1, Muscarinic acetylcholine receptor M4 (Homo sapiens, UniProt P08173)
# T1 sequence (P08173 whole entry): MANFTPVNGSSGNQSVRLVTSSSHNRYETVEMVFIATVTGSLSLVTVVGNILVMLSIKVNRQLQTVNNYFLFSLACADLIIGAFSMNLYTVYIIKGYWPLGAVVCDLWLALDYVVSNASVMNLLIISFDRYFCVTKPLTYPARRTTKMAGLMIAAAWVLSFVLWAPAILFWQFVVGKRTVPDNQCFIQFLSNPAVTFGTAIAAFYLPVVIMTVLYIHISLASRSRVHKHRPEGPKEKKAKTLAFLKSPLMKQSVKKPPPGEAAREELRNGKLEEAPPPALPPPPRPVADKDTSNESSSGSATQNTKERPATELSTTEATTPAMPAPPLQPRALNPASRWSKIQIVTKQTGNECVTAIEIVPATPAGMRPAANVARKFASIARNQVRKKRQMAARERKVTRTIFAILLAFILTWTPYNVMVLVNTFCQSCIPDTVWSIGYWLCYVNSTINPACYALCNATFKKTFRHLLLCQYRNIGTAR
# [2] = molecular target: T2, Muscarinic acetylcholine receptor M5 (Homo sapiens, UniProt P08912)
# T2 sequence (P08912 whole entry): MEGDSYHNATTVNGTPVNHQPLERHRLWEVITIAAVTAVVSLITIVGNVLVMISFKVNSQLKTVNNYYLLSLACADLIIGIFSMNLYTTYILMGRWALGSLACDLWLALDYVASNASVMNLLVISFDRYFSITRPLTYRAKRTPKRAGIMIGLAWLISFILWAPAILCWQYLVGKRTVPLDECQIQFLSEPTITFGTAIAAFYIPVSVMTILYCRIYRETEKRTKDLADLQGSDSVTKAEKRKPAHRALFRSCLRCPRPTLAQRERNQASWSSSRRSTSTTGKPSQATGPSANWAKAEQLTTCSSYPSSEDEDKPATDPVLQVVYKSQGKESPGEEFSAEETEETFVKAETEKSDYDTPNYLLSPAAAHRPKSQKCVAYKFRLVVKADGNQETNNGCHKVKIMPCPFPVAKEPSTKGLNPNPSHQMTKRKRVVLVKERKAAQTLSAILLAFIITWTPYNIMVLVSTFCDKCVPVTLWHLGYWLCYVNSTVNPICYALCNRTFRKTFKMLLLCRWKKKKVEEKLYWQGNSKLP
# [3] = molecular target: Muscarinic acetylcholine receptor M3 (Homo sapiens, UniProt P20309)
# [4] = molecular target: T3, Muscarinic acetylcholine receptor M2 (Homo sapiens, UniProt P08172)
# T3 sequence (P08172 whole entry): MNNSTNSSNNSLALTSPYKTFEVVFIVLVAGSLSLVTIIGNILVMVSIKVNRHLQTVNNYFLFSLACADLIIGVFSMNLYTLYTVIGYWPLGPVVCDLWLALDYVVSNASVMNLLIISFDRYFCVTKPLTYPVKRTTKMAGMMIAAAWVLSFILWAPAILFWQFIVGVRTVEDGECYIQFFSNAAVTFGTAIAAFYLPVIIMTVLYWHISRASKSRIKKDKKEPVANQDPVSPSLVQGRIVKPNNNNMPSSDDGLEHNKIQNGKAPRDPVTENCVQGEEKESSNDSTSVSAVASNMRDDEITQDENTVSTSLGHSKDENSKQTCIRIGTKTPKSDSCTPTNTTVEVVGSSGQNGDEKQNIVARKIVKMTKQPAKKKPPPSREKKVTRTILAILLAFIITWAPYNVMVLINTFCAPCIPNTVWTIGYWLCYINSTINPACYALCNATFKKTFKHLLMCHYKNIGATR
# [5] = molecular target: T4, Muscarinic acetylcholine receptor M2 (Rattus norvegicus, UniProt P10980)
# T4 sequence (P10980 whole entry): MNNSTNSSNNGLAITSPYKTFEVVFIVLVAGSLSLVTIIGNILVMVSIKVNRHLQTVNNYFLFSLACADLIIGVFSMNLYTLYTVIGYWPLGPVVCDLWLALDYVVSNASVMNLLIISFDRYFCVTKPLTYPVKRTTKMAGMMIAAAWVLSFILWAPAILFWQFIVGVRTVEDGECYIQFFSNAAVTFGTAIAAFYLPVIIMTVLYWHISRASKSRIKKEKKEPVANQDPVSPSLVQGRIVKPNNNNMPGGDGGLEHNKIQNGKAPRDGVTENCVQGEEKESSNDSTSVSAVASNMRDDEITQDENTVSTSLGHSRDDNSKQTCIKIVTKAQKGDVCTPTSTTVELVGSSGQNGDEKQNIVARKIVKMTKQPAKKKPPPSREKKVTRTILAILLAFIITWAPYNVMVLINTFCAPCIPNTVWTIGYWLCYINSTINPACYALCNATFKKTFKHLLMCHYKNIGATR
# [6] = molecular target: T5, Muscarinic acetylcholine receptor M1 (Homo sapiens, UniProt P11229)
# T5 sequence (P11229 whole entry): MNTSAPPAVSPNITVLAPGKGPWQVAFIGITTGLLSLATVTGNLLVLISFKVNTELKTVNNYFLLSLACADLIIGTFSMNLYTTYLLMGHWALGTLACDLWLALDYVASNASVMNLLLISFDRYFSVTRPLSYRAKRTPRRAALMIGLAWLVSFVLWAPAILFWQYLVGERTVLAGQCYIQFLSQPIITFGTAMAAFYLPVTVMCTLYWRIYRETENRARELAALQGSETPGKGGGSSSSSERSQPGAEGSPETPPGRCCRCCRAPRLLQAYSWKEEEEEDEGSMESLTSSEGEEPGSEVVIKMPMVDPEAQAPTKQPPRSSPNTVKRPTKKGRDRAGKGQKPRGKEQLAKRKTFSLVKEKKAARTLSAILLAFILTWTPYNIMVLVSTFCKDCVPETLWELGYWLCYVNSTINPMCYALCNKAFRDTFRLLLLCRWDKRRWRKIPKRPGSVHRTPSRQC
# Chain of Muscarinic acetylcholine receptor M3 (P20309 whole entry): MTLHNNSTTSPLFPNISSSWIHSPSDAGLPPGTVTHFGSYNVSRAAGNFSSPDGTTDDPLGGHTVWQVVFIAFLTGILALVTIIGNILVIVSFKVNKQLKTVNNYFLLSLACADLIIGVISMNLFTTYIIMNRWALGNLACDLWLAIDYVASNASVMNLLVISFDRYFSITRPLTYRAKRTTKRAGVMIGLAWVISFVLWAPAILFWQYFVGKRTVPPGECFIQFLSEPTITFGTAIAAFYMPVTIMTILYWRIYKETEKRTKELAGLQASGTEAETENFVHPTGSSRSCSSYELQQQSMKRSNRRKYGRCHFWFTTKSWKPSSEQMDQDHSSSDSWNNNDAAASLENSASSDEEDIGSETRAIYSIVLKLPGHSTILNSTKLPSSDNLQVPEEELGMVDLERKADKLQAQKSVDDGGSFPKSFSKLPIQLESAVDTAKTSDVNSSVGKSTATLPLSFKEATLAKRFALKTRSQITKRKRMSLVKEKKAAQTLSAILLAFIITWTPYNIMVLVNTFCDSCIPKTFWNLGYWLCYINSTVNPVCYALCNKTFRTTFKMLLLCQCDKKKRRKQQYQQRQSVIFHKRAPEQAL
Compound,Ki [1] [nM],Ki [2] [nM],Ki [3] [nM],Ki [4] [nM],Ki [5] [nM],Ki [6] [nM]
C(#Cc1cccc(C#CCOc2nsnc2C2CN3CCC2CC3)c1)COc1nsnc1C1CN2CCC1CC2 (stereo unspecified) [NNC 11-1607],8.13,6.03,8.13,5.75,9.55,2.4
C(#Cc1ccccc1)COc1nsnc1C1CN2CCC1CC2 (stereo unspecified),49,14.8,77.6,58.9,–,41.7
C(#Cc1ccc(C#CCOc2nsnc2C2CN3CCC2CC3)cc1)COc1nsnc1C1CN2CCC1CC2 (stereo unspecified) [NNC 11-1585],2.57,5.25,4.68,0.079,–,0.129
